Laboratory results taken from patent publication US10464925B2, “Methods to induce targeted protein degradation through bifunctional molecules” (Dana-Farber Cancer Institute, Inc., priority 2015, dated 2019).
Read-outs that look alike come from different tables or passages of the source.

Key:
Format in all cases: cell-based
797 = assay: Cell viability, 797 cells (Table 4); conditions: read-out: IC50 (nM) 797
[1] = target: T1, BRD4 adjoined to nanoluciferase (Nluc) (Homo sapiens, UniProt O60885+Q96SW2); assay: BRD4 Dual Luciferase Assay;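 note: transduced reporter cells exposed to compound for 4 h, then Nluc and Fluc luminescence read, each normalized to DMSO controls and expressed as Nluc/Fluc ratio per well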
T1 construct: expressed in transfected cells
Method: Transduced cells were selected with puromycin and expanded. […] Cells were incubated with compound for 4 hours at 37° C., 5% CO2 and then allowed to cool to room temperature. To each plate was added 25 μL of Fluc buffer (200 mM Tris, 15 mM MgSO4, 100 uM EDTA, 1 mM DTT, 1 mM ATP, 200 uM Coenzyme A, 400 uM D-Luciferin, 0.1% Trition X-100).

[2] = test system: IKZF1 adjoined to nanoluciferase (Nluc); assay: IKZF1 Dual Luciferase Assay; design: Nluc/Fluc IKZF1 Max Degradation: unit: %; conditions: 293 FT cells, 4 hours; for IC50: read-out: Nluc/Fluc IKZF1 IC50
Method: Transduced cells were selected with puromycin at 2 μg/mL and expanded. […] Cells were incubated with compound for 4 hours at 37° C., 5% CO2 and then allowed to cool to room temperature. To each plate was added 25 μL of Fluc buffer (200 mM Tris, 15 mM MgSO4, 100 uM EDTA, 1 mM DTT, 1 mM ATP, 200 uM Coenzyme A, 400 uM D-Luciferin, 0.1% Trition X-100).

[3] = read-out: BRD4 max degradation(%) Dual Luciferase
[4] = 4 hours, read-out: max degradation (dual luc)

Dmax [1, 3] | Dmax [1, 4] | SMILES | IC50 797 | further results
< 10% | – | Cc1sc2c(c1C)C(c1ccc(Cl)cc1)=N[C@@H](CC(=O)NCCOCCOCCOc1cccc3c1C(=O)N(C1CCC(=O)NC1=O)C3=O)c1nnc(C)n1-2 (stereo partly drawn) [dBET40] | 299 nM | –
– | – | O=C1CCC(N2C(=O)c3ccc(C(=O)O)cc3C2=O)C(=O)N1 [Compound D-13, 2-(2,6-dioxopiperidin-3-yl)-1,3-dioxoisoindoline-5-carboxylic acid] | – | IC50 [2]: > 50000 nM
21% | – | Cc1sc2c(c1C)C(c1ccc(Cl)cc1)=N[C@@H](CC(=O)NCCCCCCCCOc1cccc3c1C(=O)N(C1CCC(=O)NC1=O)C3=O)c1nnc(C)n1-2 (stereo partly drawn) [dBET21] | 630 nM | Emax ([1]; BRD4 remaining at Emax, read-out: BRD4− Emax (percent remaining)): 78.1%
– | – | Cc1sc2c(c1C)C(c1ccc(Cl)cc1)=N[C@@H](CC(=O)NCCCOCCCNC(=O)COc1cccc3c1C(=O)N(C1CCC(=O)NC1=O)C3=O)c1nnc(C)n1-2 (stereo partly drawn) [dBET38] | 770 nM | –
< 10% | – | Cc1sc2c(c1C)C(c1ccc(Cl)cc1)=N[C@@H](CC(=O)NCCCCCCCC(=O)Nc1cccc3c1CN(C1CCC(=O)NC1=O)C3=O)c1nnc(C)n1-2 (stereo partly drawn) [dBET44] | 719 nM | –
– | – | COc1cc(C(=O)NCCCOCCOCCOCCCNC(=O)COc2cccc3c2C(=O)N(C2CCC(=O)NC2=O)C3=O)ccc1Nc1ccc2c(n1)N(C1CCCC1)[C@H](C)C(=O)N2C (stereo partly drawn) [dBET46] | 9450 nM | –
– | – | COc1cc(C(=O)NCCCCCCCCNC(=O)COc2cccc3c2C(=O)N(C2CCC(=O)NC2=O)C3=O)ccc1Nc1ccc2c(n1)N(C1CCCC1)[C@H](C)C(=O)N2C (stereo partly drawn) [dBET45] | 3450 nM | –
46% | 46.4% | Cc1sc2c(c1C)C(c1ccc(Cl)cc1)=N[C@@H](CC(=O)NCCCCCC(=O)NCc1cccc3c1C(=O)N(C1CCC(=O)NC1=O)C3=O)c1nnc(C)n1-2 (stereo partly drawn) [dBET37] | 1020 nM | –
< 10% | 7.04% | Cc1cnc(Nc2ccc(N3CCN(C(=O)CCCNC(=O)COc4cccc5c4C(=O)N(C4CCC(=O)NC4=O)C5=O)CC3)cc2)nc1Nc1cccc(S(=O)(=O)NC(C)(C)C)c1 (stereo not drawn) [dBET20] | 14700 nM | –
– | – | Nc1cccc2c1C(=O)N(C1CCC(=O)NC1=O)C2=O [Compound D-4, 4-amino-2-(2,6-dioxopiperidin-3-yl)isoindoline-1,3-dione] | – | Nluc/Fluc IKZF1 Max Degradation [2]: 66.43
– | – | O=C1CCC(N2C(=O)c3cccc(O)c3C2=O)C(=O)N1 [Compound D-1, 2-(2,6-dioxopiperidin-3-yl)-4-hydroxyisoindoline-1,3-dione] | – | IC50 [2]: > 50000 nM
– | – | Cc1sc2c(c1C)C(c1ccc(Cl)cc1)=N[C@@H](CC(=O)NCCCCNC(=O)Cc1cccc3c1C(=O)N(C1CCC(=O)NC1=O)C3=O)c1nnc(C)n1-2 (stereo partly drawn) [dBET36] | 725 nM | –
– | – | COc1cc(C(=O)NCCCCNC(=O)COc2cccc3c2C(=O)N(C2CCC(=O)NC2=O)C3=O)ccc1Nc1ccc2c(n1)N(C1CCCC1)[C@H](C)C(=O)N2C (stereo partly drawn) [dBET16] | 4900 nM | –
12% | 11.7% | Cc1sc2c(c1C)C(c1ccc(Cl)cc1)=N[C@@H](CC(=O)NCCCCNC(=O)CNc1cccc3c1CN(C1CCC(=O)NC1=O)C3=O)c1nnc(C)n1-2 (stereo partly drawn) [dBET35] | 372 nM | –
10% | 10% | Cc1sc2c(c1C)C(c1ccc(Cl)cc1)=N[C@@H](CC(=O)NCCCCC(=O)Nc1cccc3c1CN(C1CCC(=O)NC1=O)C3=O)c1nnc(C)n1-2 (stereo partly drawn) [dBET42] | 7720 nM | –
13% | 13% | Cc1sc2c(c1C)C(c1ccc(Cl)cc1)=N[C@@H](CC(=O)NCCCCCCC(=O)Nc1cccc3c1CN(C1CCC(=O)NC1=O)C3=O)c1nnc(C)n1-2 (stereo partly drawn) [dBET43] | 2250 nM | –

SMILES | Dmax [1, 3] | Dmax [1, 4] | IC50 797 | further results
COC(=O)C[C@@H]1N=C(c2ccc(Cl)cc2)c2c(sc(C)c2C(=O)NCCCCNC(=O)COc2cccc3c2C(=O)N(C2CCC(=O)NC2=O)C3=O)-n2c(C)nnc21 (stereo partly drawn) [dBET25] | 42% | 41.7% | 6860 nM | –
COC(=O)C[C@@H]1N=C(c2ccc(Cl)cc2)c2c(sc(C)c2C(=O)NCCCCCCCCNC(=O)COc2cccc3c2C(=O)N(C2CCC(=O)NC2=O)C3=O)-n2c(C)nnc21 (stereo partly drawn) [dBET26] | 40% | 39.9% | 7020 nM | –
